Assay results from US20100240617A1, “BICYCLIC SPHINGOSINE 1-PHOSPHATE ANALOGS” (University of Virginia Patent Foundation, priority 2007, published 2010).

Test system: lymphocytes in blood
Assay: lymphopenia assay
Type: in vivo
Settings: mice, 8 doses, 3 mice per dose
Procedure: Compounds (e.g., primary alcohols such as compound VIII) are dissolved in 2% hydroxypropyl beta-cyclodextrin and introduced into groups of mice by oral gavage at doses from 0.01, 1.0 and 10 mg/kg body weight. After 24 hours and 48 hours, the mice are lightly anesthetized and ca. 0.1 ml of blood is drawn from the orbital sinus. The number of lymphocytes (in thousands per microliter of blood; normal is 4-11) is determined using a Hemavet blood analyzer. There are three mice/group, the strain was mixed sv129×C57BL/6. Active compounds (e.g., compound VIII-C and compound VIII-D) are dissolved in acidified DMSO at 20 mM, and diluted 1:20 into 2% hydroxypropyl beta-cyclodextrin in water with mixing. […]

Row | SMILES | ED50 in the lymphopenia assay
1 | CCCCCCCCc1ccc2c(c1)CCC(C(N)(CO)CO)C2 (single isomer, unassigned; (+)) [VIII-A, (+)-2-Amino-2-(6-octyl-1,2,3,4-tetrahydro-naphthalen-2-yl)-propane-1,3-diol] | 0.2 mg/kg
2 | CCCCCCCCc1ccc2c(c1)CCC(C(N)(CO)CO)C2 (single isomer, unassigned; (-)) [VIII-B, (−)-2-Amino-2-(6-octyl-1,2,3,4-tetrahydro-naphthalen-2-yl)-propane-1,3-diol] | 2 mg/kg
